Data from US20240083857A1, “2-Methyl-Quinazolines” (Bayer Pharma Aktiengesellschaft, priority 2017, published 2024).

Assays:
[1] = biological target: human SOS1 (nucleotide exchange of K-Ras^G12C) (Homo sapiens, UniProt Q07889); experiment: Biochemical assay 2: K-Ras^G12C activation assay by hSOS1 at high GTP concentration (HTRF); conditions: E-notation values; unit inferred; 50 μM GTP; read-out: Assay 2 (KRAS-Activation, high GTP) IC50
[2] = biological target: human SOS1 (loading of human K-Ras^G12C-GDP with fluorescent GTP-analog) (Homo sapiens, UniProt Q07889); experiment: Biochemical assay 3: K-Ras^G12C activation assay by hSOS1 (HTRF); conditions: E-notation values; unit inferred; read-out: Assay 3 (KRAS-Activation) IC50

| SMILES | IC50 [1] | IC50 [2] |
| --- | --- | --- |
| COc1cc2nc(C)nc(NC(C)c3cc(Cl)c(Br)s3)c2cc1OC (centres unmarked) [Example 432, N-[1-(5-bromo-4-chlorothiophen-2-yl)ethyl]-6,7-dimethoxy-2-methylquinazolin-4-amine] | 15700 nM | > 20000 nM |
| Cc1nc(NC(C)c2ccc(-c3ccccc3CN(C)C)s2)c2cc(NCCN3CCOCC3)ccc2n1 (centres unmarked) [Example 433, N4-[1-(5-{2-[(dimethylamino)methyl]phenyl}-2-thienyl)ethyl]-2-methyl-N6-[2-(morpholin-4-yl)ethyl]quinazoline-4,6-diamine] | 70.1 nM | 76.9 nM |
| Cc1nc(NC(C)c2ccc(Br)s2)c2cc(N3CCN(C)C(=O)C3)ccc2n1 (centres unmarked) [Example 434, 4-(4-{[1-(5-bromothiophen-2-yl)ethyl]amino}-2-methylquinazolin-6-yl)-1-methylpiperazin-2-one] | 2390 nM | 2810 nM |
| Cc1nc(NC(C)c2ccc(-c3ccccc3CN(C)C)s2)c2cc(N3CCN(C)C(=O)C3)ccc2n1 (centres unmarked) [Example 435, 4-(4-{[1-(5-{2-[(dimethylamino)methyl]phenyl}thiophen-2-yl)ethyl]amino}-2-methylquinazolin-6-yl)-1-methylpiperazin-2-one] | 51.9 nM | 68.6 nM |
| COC(=O)C(C)(C)c1ccccc1-c1ccc(C(C)Nc2nc(C)nc3cc(OC)c(OC)cc23)s1 (centres unmarked) [Example 436, methyl 2-[2-(5-{1-[(6,7-dimethoxy-2-methylquinazolin-4-yl)amino]ethyl}thiophen-2-yl)phenyl]-2-methylpropanoate] | 1470 nM | 1770 nM |
| COc1cc2nc(C)nc(NC(C)c3sc(-c4ccccc4CN)cc3Cl)c2cc1OC (centres unmarked) [Example 437, N-[1-{5-[2-(aminomethyl)phenyl]-3-chlorothiophen-2-yl}ethyl]-6,7-dimethoxy-2-methylquinazolin-4-amine] | 95.3 nM | 160 nM |
| Cc1nc(NC(C)c2ccc(-c3ccccc3CN(C)C)s2)c2cc(NS(C)(=O)=O)ccc2n1 (centres unmarked) [Example 438, N-(4-{[1-(5-{2-[(dimethylamino)methyl]phenyl}thiophen-2-yl)ethyl]amino}-2-methylquinazolin-6-yl)methanesulfonamide] | 65.5 nM | 116 nM |
| COc1ccc(-c2ccc(C(C)Nc3nc(C)nc4cc(OC)c(OC)cc34)s2)c(CN(C)C)c1 (centres unmarked) [Example 439, N-[1-(5-{2-[(dimethylamino)methyl]-4-methoxyphenyl}thiophen-2-yl)ethyl]-6,7-dimethoxy-2-methylquinazolin-4-amine] | 145 nM | 229 nM |
| Cc1nc(NC(C)c2ccc(-c3ccccc3CN(C)C)s2)c2cc(NC(=O)N(C)C)ccc2n1 (centres unmarked) [Example 440, 3-(4-{[1-(5-{2-[(dimethylamino)methyl]phenyl}thiophen-2-yl)ethyl]amino}-2-methylquinazolin-6-yl)-1,1-dimethylurea] | 576 nM | 921 nM |
| Cc1nc(NC(C)c2ccc(Br)s2)c2cc(N3CCN(Cc4ccccc4)C(=O)C3)ccc2n1 (centres unmarked) [Example 441, 1-benzyl-4-(4-{[1-(5-bromothiophen-2-yl)ethyl]amino}-2-methylquinazolin-6-yl)piperazin-2-one] | 3950 nM | 15100 nM |
| COc1cc2nc(C)nc(NC(C)c3ccc(-c4ccc(C)cc4CN(C)C)s3)c2cc1OC (centres unmarked) [Example 442, N-[1-(5-{2-[(dimethylamino)methyl]-4-methylphenyl}thiophen-2-yl)ethyl]-6,7-dimethoxy-2-methylquinazolin-4-amine] | 39.4 nM | 45.1 nM |
| COc1cc2nc(C)nc(NC(C)c3ccc(-c4ccc(C5CC5)cc4CN(C)C)s3)c2cc1OC (centres unmarked) [Example 443, N-[1-(5-{4-cyclopropyl-2-[(dimethylamino)methyl]phenyl}thiophen-2-yl)ethyl]-6,7-dimethoxy-2-methylquinazolin-4-amine] | 60.5 nM | 69 nM |
| COc1cc2nc(C)nc(NC(C)c3ccc(-c4ccccc4C(C)(C)N)s3)c2cc1OC (centres unmarked) [Example 455, N-[1-{5-[2-(2-aminopropan-2-yl)phenyl]thiophen-2-yl}ethyl]-6,7-dimethoxy-2-methylquinazolin-4-amine] | 1040 nM | 769 nM |
| COc1cc2nc(C)nc(NC(C)c3ccc(-c4ccccc4CN(C)CC#N)s3)c2cc1OC (centres unmarked) [Example 456, {[2-(5-{1-[(6,7-dimethoxy-2-methylquinazolin-4-yl)amino]ethyl}thiophen-2-yl)benzyl](methyl)amino}acetonitrile] | 292 nM | 287 nM |
| CNC(=O)Nc1ccc2nc(C)nc(NC(C)c3ccc(-c4ccccc4CN(C)C)s3)c2c1 (centres unmarked) [Example 457, 1-(4-{[1-(5-{2-[(dimethylamino)methyl]phenyl}thiophen-2-yl)ethyl]amino}-2-methylquinazolin-6-yl)-3-methylurea] | 682 nM | 638 nM |
| Cc1nc(NC(C)c2ccc(-c3ccccc3CN(C)C)s2)c2cc(N3CCN(Cc4ccccc4)C(=O)C3)ccc2n1 (centres unmarked) [Example 458, 1-benzyl-4-(4-{[1-(5-{2-[(dimethylamino)methyl]phenyl}thiophen-2-yl)ethyl]amino}-2-methylquinazolin-6-yl)piperazin-2-one] | 40 nM | 45.5 nM |
